The structures appear in SMILES notation.

Format in all cases: biochemical
Assay [1] deals with T1, Gox1615 (Gluconobacter oxydans, UniProt Q5FQJ0).
T1 sequence (Q5FQJ0 1-332): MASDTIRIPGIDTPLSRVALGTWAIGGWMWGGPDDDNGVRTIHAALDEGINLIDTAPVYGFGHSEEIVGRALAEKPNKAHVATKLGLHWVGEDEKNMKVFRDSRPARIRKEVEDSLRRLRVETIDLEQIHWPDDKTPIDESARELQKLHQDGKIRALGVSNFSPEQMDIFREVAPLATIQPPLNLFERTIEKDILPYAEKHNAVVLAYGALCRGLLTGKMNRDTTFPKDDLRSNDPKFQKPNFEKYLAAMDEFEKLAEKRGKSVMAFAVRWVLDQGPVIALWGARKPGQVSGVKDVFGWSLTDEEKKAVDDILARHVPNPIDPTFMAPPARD
As to the kind of experiment: Enzyme kinetics (Lineweaver-Burk plots), Gox1615. Particulars: NADPH-dependent reduction. As for the experimental part:
(§1) Determination of pH and temperature optima and enzyme kinetics: The optimum pH for enzyme activities was determined by a modified method of Salusjärvi, T. et al., Appl. Microbiol. Biotechnol. 65:306-314 (2004) using the following buffer system (50 mM final concentration each): sodium acetate pH 4.5 - 6.5, potassium phosphate pH 6.5 - 8.0, Tris-HCl pH 8.0 - 10. Temperature optima for the biocatalysts were determined under standard reaction conditions at temperatures ranging from 20 - 80 °C. The Michaelis constant (Km) for the proteins was determined from purified enzyme by Lineweaver-Burk plots. Assays were performed at optimum pH for each enzyme and at 30 °C using the top substrate and a targeted substrate. The Km for each substrate was calculated using concentrations of 0.0025 to 10 mM, and the Km NAD(P)H and NAD(P) was calculated using concentrations of 0.01 to 0.5 mM
(§2) The Michaelis constants were determined from purified enzyme by Lineweaver-Burk plots. The Km and Vmax values for the substrates were calculated using concentrations of 0.025 to 10 mM, The optimal pH values and temperatures for enzyme activities are also shown in Tab. 11. Tab. 11: Summary of kinetic parameters

Assay [2] concerns the target T2, Gox0644 (Gluconobacter oxydans, UniProt Q5FT75). Description: Enzyme kinetics (Lineweaver-Burk plots), Gox0644. Particulars: NADPH-dependent reduction. As for the experimental part: as §1, §2
For assay [3], the target named is T2, Gox0644. As to the kind of experiment: Gox0644 acetaldehyde tolerance test. The source says:
3.1. […] By coupling two coenzyme-dependent enzyme reactions, NADPH can be continuously regenerated. […] For this purpose, a combined enzymatic reaction was used between the NADPH-dependent oxidoreductases that form α-hydroxy carbonyl compounds and the aldehyde dehydrogenase GOX1122 that produces the reduced cofactor in the course of acetaldehyde oxidation. […] The products derived from the α-diketone and α-ketoaldehyde substrate reaction were generated according to the cofactor regeneration protocol. […] In both the reactions with phenylglyoxal and 2,3 pentanedione, Gox0644 activity remained similar to the control reaction consisting of a reaction without acetaldehyde (Tab. 12/13). […] In the reaction with 2,3 pentanedione there was a slight decrease of about 20% from the control, however, the activity levels were still very high at 66.8 U/mg. […] Table 12: Gox0644 acetaldehyde tolerance tests with phenylglyoxal

In assay [4] the target is T1, Gox1615. Description: Regioselectivity of bioconversion, product determined by NMR, Gox1615. Conditions: bioconversion with Gox1122 cofactor regeneration, NMR analysis. The source says:
Cofactor regeneration: A prerequisite for the production of α-hydroxycarbonyl compounds is the regeneration of the expensive coenzymes and the stability of the protein catalysts. By coupling two coenzyme-dependent enzyme reactions, NADPH can be continuously regenerated. […] For this purpose, we used a combined enzymatic reaction between the NADPH-dependent oxidoreductases that form α-hydroxycarbonyl compounds and the aldehyde dehydrogenase GOX1122 (see Schweiger, P. et al., J. Mol. Microbiol. Biotechnol. 13:147-155 (2007)) that produces the reduced cofactor in the course of acetaldehyde oxidation. […] The biotransformation was performed in a batch process (total volume 2.5 ml 40 mM potassium phosphate buffer pH 7). 30 µg of purified Gox1122 and of NADPH-dependent oxidoreductases and 50 µM NADPH were added. The substrate concentration in the beginning was 20 mM 2,3-pentanedione and 20 mM acetaldehyde. Fresh substrates were added every 60 min (20 mM each).
NMR: The 2.5 ml bioconversion was extracted with two times equal volume of d-chloroform. ^1H and ^13C NMR spectra were recorded on a DPX 300 Spectrometer (300 MHz) and referenced to the CDCl3 internal standard. Chemical samples analyzed with Bruker NMR Suite 2.5 software constructed final product structures.
2.7 Regioselectivity of GOX0644 and GOX1615: Tab. […] Tab. 10: Summary of Regioselectivity
The reduced NADPH was oxidized in the reduction of phenylglyoxal to 2-hydroxy-2-phenyl-acetaldehyde by protein Gox1615. 5 ml bioconversions for determining regioselectivity were set up with 2 mg of proteins Gox1615 and Gox1122, 40 mM potassium phosphate buffer, pH 7.0, 50 µM NADPH. Substrates (20 mM phenylglyoxal and acetaldehyde) were added every 30 min. The reaction was followed for 3 h to produce quantities between 40-60 mg of product (2-phenyl-2-hydroxyaldehyde).

`CCCC(=O)C(C)=O` [2,3-hexanedione]: at Gox1615 [1], the Vmax was determined as 6 U/mg protein.

For the molecule `O=CC(=O)c1ccccc1` [phenylglyoxal], the Vmax on Gox0644 [2] is 93 U/mg protein. The Gox0644 activity is recorded as 38.5 U/mg at Gox0644 [3] (substrate phenylglyoxal, Control (without acetaldehyde)); 29.6 U/mg on Gox0644 [3] (substrate phenylglyoxal, acetaldehyde 10mM); 37.1 U/mg at Gox0644 [3] (substrate phenylglyoxal, acetaldehyde 30mM); 39.3 U/mg at Gox0644 [3] (substrate phenylglyoxal, acetaldehyde 50mM); 31.2 U/mg at Gox0644 [3] (substrate phenylglyoxal, acetaldehyde 100mM). Besides, the “Product (regioselective reduction)” value at Gox1615 [4] is listed as 2-hydroxy-2-phenyl-acetaldehyde; on Gox1615 [4] (listed as Phenylglyoxal), 2-hydroxy-2-phenylacetaldehyde.

On to `CCC(=O)C(C)=O` [2,3-pentanedione], for which the Vmax at Gox0644 [2] turned out to be 79 U/mg protein. This molecule also gave an activity levels at Gox0644 [3] (Gox0644 with 2,3 pentanedione, high concentration of acetaldehyde) of 66.8 U/mg. Also, the Gox0644 activity is 87.6 U/mg at Gox0644 [3] (substrate 2,3-pentanedione, Control (without acetaldehyde)); 90.5 U/mg on Gox0644 [3] (substrate 2,3-pentanedione, acetaldehyde 10mM); 79.3 U/mg at Gox0644 [3] (substrate 2,3-pentanedione, acetaldehyde 30mM); 66.8 U/mg at Gox0644 [3] (substrate 2,3-pentanedione, acetaldehyde 50mM). Also, the “Product (regioselective reduction)” value at Gox1615 [4] was 2-hdrox-pentane-3-one.

Regarding `CC(=O)C=O` [methylglyoxal], the Vmax at Gox1615 [1] is listed as 22 U/mg protein.

These data come from patent EP2119770B1, “Production of alpha-oxyfunctionalized carbonyl compounds” (priority 2008, dated 2009).
